For 23 compounds, IC50 results are on record in US20120088753A1, “PYRROLOPYRIMIDINES AND USED AS KINASE INHIBITORS” (MEDICAL RESEARCH COUNCIL TECHNOLOGY, priority 2009, published 2012).

Structures are written as SMILES.

In the assay the target is T1, TBK1 (Homo sapiens, UniProt Q9UHD2).
T1 construct: All protein kinases were of human origin and encoded full length proteins, unless indicated otherwise; His6; made in house; host or cells: insect Sf21 cells
T1 sequence (Q9UHD2 1-729): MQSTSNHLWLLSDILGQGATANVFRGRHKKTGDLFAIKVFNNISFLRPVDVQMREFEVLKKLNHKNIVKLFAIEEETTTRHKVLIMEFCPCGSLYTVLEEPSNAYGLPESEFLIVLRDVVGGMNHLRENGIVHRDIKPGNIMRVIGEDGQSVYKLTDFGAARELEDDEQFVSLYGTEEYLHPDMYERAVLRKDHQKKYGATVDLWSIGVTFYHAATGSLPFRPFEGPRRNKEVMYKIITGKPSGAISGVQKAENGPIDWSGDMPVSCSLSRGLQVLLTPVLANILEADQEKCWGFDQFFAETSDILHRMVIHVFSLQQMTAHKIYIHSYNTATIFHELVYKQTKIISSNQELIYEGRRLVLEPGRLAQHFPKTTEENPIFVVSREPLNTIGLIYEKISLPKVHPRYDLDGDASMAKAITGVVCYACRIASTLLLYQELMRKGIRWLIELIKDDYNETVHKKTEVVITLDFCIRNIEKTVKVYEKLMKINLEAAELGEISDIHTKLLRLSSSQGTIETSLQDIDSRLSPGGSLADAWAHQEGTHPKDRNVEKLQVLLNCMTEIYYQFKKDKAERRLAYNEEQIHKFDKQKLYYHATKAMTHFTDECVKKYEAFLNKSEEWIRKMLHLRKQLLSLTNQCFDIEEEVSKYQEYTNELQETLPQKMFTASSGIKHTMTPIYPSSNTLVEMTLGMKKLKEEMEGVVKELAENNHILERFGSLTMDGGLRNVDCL
Description: TBK1 protein kinase assay ([γ-33P]ATP filter-plate, IC50 from 10 concentrations). Type of assay: biochemical. The conditions noted are these: 50 μM ATP, peptide substrate 300 μM, 30 min, 21° C.; read-out: Potency score (TBK1 IC50). An excerpt:
All protein kinases were of human origin and encoded full length proteins, unless indicated otherwise. They were either expressed as glutathione S-transferase (GST) fusion proteins in Escherichia Coli or as hexahistidine (His6)-tagged proteins in insect Sf21 cells. GST fusion proteins were purified by affinity chromatography on glutathione-Sepharose, and His6-tagged proteins on nickel/nitriloacetate-agarose. The procedures for expressing some of the protein kinases used herein have been detailed previously.^8,9 The following sections outline the DNA vectors synthesised and the procedures used to express and purifying protein kinases that have not been reported previously.
The following kinases were expressed in Sf21 cells: Aurora B and Aurora C, extra-cellular signal-regulated kinase 8 (ERK8), microtubule affinity regulating kinase 3 (MARK3), protein kinase Bα[118-480][S473D], protein kinase Bβ (PKBβ[120-481][S474D], 3-phosphoinositide-dependent protein kinase-1 [52-556] (PDK1[52-556], IKKε, TBK1,
All assays (25.5 μl) were carried out at room temperature (21° C.) and were linear with respect to time and enzyme concentration under the conditions used. Assays were performed for 30 min using Multidrop Micro reagent dispensers (Thermo Electron Corporation, Waltham, Mass. 02454, USA) in a 96-well format. The concentration of magnesium acetate in the assays was 10 mM and the [γ-33P] ATP (800 cpm/pmol) was used at 5, 20 or 50 μM as indicated, in order to be at or below the Km for ATP for each enzyme. Protein kinases assayed at 5 μM ATP were: ERK1, ERK8, PKBα, MARK3, Aurora C. Protein kinases assayed at 20 μM ATP were: JNK1, PDK1, CHK1, CHK2, CDK2 and Aurora B. Protein kinases assayed at 50 μM ATP were: MNK2, IKKepsilon and TBK1.
The assays were initiated with MgATP, stopped by addition of 5 μl of 0.5 M orthophosphoric acid and spotted on to P81 filterplates using a unifilter harvester (PerkinElmer, Boston, Mass. 02118, USA). The IC50 values of inhibitors were determined after carrying out assays at 10 different concentrations of each compound.
ERK1 and ERK8 were both assayed against myelin basic protein (MBP, 0.33 mg/ml). MARK3 was assayed against the peptide […] (300 μM), MNK2 against the eIF4E protein (0.5 mg/ml). PKBβ was assayed against the peptide GRPRTSSFAEGKK (30 μM). TBK1 were assayed against ([…]) (300 μM). The substrates used for other protein kinases were described previously.^8,9
Unless stated otherwise, enzymes were diluted in 50 mM Tris/HCl pH 7.5, 0.1 mM EGTA, 1 mg/ml BSA, 0.1% (v/v) 2-mercaptoethanol and assayed in 50 mM Tris/HCl pH 7.5, 0.1 mM EGTA, 0.1% (v/v) 2-mercaptoethanol.
As a reminder, the IC50 is the point on the concentration scale where inhibition reaches its midpoint. With `O=C(NCCCn1ccc2cnc(Nc3ccc(N4CCOCC4)nc3)nc21)C1CCCCC1` [Example 24, Cyclohexanecarboxylic acid {3-[2-(6-morpholin-4-yl-pyridin-3-ylamino)-pyrrolo[2,3-d]pyrimidin-7-yl]-propyl}-amide], the IC50 was 100 to 1000 nM.

As to `CCCC(=O)NCCCn1ccc2cnc(Nc3ccc(N4CCOCC4)nc3)nc21` [Example 26, N-{3-[2-(6-Morpholin-4-yl-pyridin-3-ylamino)-pyrrolo[2,3-d]pyrimidin-7-yl]-propyl}-butyramide], the IC50 is 100 to 1000 nM. Take `CN(C)Cc1ccc(Nc2ncc3ccn(CCCNC(=O)C4CCC4)c3n2)cc1` [Example 5, Cyclobutanecarboxylic acid {3-[2-(4-dimethylaminomethyl-phenylamino)-pyrrolo[2,3-d]pyrimidin-7-yl]-propyl}-amide]: the IC50 was less than 100 nM.

In the case of `Cn1ncc2cc(Nc3ncc4ccn(CCCNC(=O)C5CCC5)c4n3)cnc21` [Example 44, Cyclobutanecarboxylic acid {3-[2-(1-methyl-1H-pyrazolo[3,4-b]pyridin-5-ylamino)-pyrrolo[2,3-d]pyrimidin-7-yl]-propyl}-amide], the IC50 was less than 100 nM. Consider `O=C(NCCCn1ccc2cnc(Nc3cccc(CN4CCCCC4)c3)nc21)C1CCC1` [Example 49, Cyclobutanecarboxylic acid {3-[2-(3-piperidin-1-ylmethyl-phenylamino)-pyrrolo[2,3-d]pyrimidin-7-yl]-propyl}-amide], for which the IC50 was less than 100 nM.

As to `O=C(CC1CCCC1)NCCCn1ccc2cnc(Nc3ccc(N4CCOCC4)nc3)nc21` [Example 25, 2-Cyclopentyl-N-{3-[2-(6-morpholin-4-yl-pyridin-3-ylamino)-pyrrolo[2,3-d]pyrimidin-7-yl]-propyl}-acetamide], the IC50 fell in the range of 100 to 1000 nM. In the case of `N#Cc1cccc(Nc2ncc3ccn(CCCNC(=O)c4cccs4)c3n2)c1` [Example 11, Thiophene-2-carboxylic acid {3-[2-(3-cyano-phenylamino)-pyrrolo[2,3-d]pyrimidin-7-yl]-propyl}-amide] it was 100 to 1000 nM; in that of `O=C(NCCCn1ccc2cnc(Nc3cnn(CCN4CCOCC4)c3)nc21)C1CCC1` [Example 9, Cyclobutanecarboxylic acid (3-{2-[1-(2-morpholin-4-yl-ethyl)-1H-pyrazol-4-ylamino]-pyrrolo[2,3-d]pyrimidin-7-yl}-propyl)-amide], 100 to 1000 nM.

As for `CN1CCC(O)(c2ccc(Nc3ncc4ccn(CCCNC(=O)C5CCC5)c4n3)cc2)CC1` [Example 57, Cyclobutanecarboxylic acid (3-{2-[4-(4-hydroxy-1-methyl-piperidin-4-yl)-phenylamino]-pyrrolo[2,3-d]pyrimidin-7-yl}-propyl)amide], the IC50 is less than 100 nM. In the case of `O=C(NCCCn1ccc2cnc(Nc3ccc(N4CCOCC4)nc3)nc21)C1CC1` [Example 22, Cyclopropanecarboxylic acid {3-[2-(6-morpholin-4-yl-pyridin-3-ylamino)-pyrrolo[2,3-d]pyrimidin-7-yl]-propyl}-amide] it was 100 to 1000 nM; in that of `O=C(NCCCn1cc(Cl)c2cnc(Nc3cccc(F)c3)nc21)C1CCC1` [Example 34, Cyclobutanecarboxylic acid {3-[5-chloro-2-(3-fluoro-phenylamino)-pyrrolo[2,3-d]pyrimidin-7-yl]-propyl}-amide], less than 100 nM; in that of `O=C(NCCCn1ccc2cnc(Nc3ccc4nccn4c3)nc21)C1CCC1` [Example 45, Cyclobutanecarboxylic acid {3-[2-(imidazo[1,2-a]pyridin-6-ylamino)-pyrrolo[2,3-d]pyrimidin-7-yl]-propyl}amide], less than 100 nM. In the case of `O=C(NCCCn1ccc2cnc(Nc3cccc(-c4cnco4)c3)nc21)C1CCC1` [Example 7, Cyclobutanecarboxylic acid {3-[2-(3-oxazol-5-yl-phenylamino)-pyrrolo[2,3-d]pyrimidin-7-yl]-propyl}-amide] it was less than 100 nM; in that of `O=C(NCCCn1ccc2cnc(Nc3cccnc3)nc21)c1cccs1` [Example 12, Thiophene-2-carboxylic acid {3-[2-(pyridin-3-ylamino)-pyrrolo[2,3-d]pyrimidin-7-yl]-propyl}-amide], 100 to 1000 nM. In the case of `CN1CCC(C#N)(c2ccc(Nc3ncc4ccn(CCCNC(=O)C5CCC5)c4n3)cc2)CC1` [Example 59, Cyclobutanecarboxylic acid (3-{2-[4-(4-cyano-1-methyl-piperidin-4-yl)-phenylamino]-pyrrolo[2,3-d]pyrimidin-7-yl}-propyl)-amide] it was less than 100 nM; in that of `O=C(NCCCn1ccc2cnc(Nc3cccc(NC(=O)N4CCCC4)c3)nc21)c1cccs1` [Example 14, Pyrrolidine-1-carboxylic acid [3-(7-{3-[(thiophene-2-carbonyl)-amino]-propyl}-7H-pyrrolo[2,3-d]pyrimidin-2-ylamino)-phenyl]-amide], 100 to 1000 nM; in that of `O=C(NCCCn1ccc2cnc(Nc3ccc4nccnc4c3)nc21)C1CCC1` [Example 46, Cyclobutanecarboxylic acid {3-[2-(quinoxalin-6-ylamino)-pyrrolo[2,3-d]pyrimidin-7-yl]-propyl}-amide], less than 100 nM. In the case of `CCn1cc(Nc2ncc3ccn(CCCNC(=O)C4CCC4)c3n2)cn1` [Example 47, Cyclobutanecarboxylic acid {3-[2-(1-ethyl-1H-pyrazol-4-ylamino)-pyrrolo[2,3-d]pyrimidin-7-yl]-propyl}-amide], the IC50 is less than 100 nM. `CN1CCC(c2ccc(Nc3ncc4ccn(CCCNC(=O)C5CCC5)c4n3)cc2)CC1` [Example 56, Cyclobutanecarboxylic acid (3-{2-[4-(1-methyl-piperidin-4-yl)-phenylamino]-pyrrolo[2,3-d]pyrimidin-7-yl}-propyl]-amide]: the IC50 is less than 100 nM. In the case of `CC(=O)Nc1cccc(Nc2ncc3ccn(CCCNC(=O)C4CCCC4)c3n2)c1` [Example 33, Cyclopentanecarboxylic acid {3-[2-(3-acetylamino-phenylamino)-pyrrolo[2,3-d]pyrimidin-7-yl]-propyl}-amide] it was less than 100 nM; in that of `N#Cc1cn(CCCNC(=O)C2CCC2)c2nc(Nc3cccc(F)c3)ncc12` [Example 37, Cyclobutanecarboxylic acid {3-[5-cyano-2-(3-fluoro-phenylamino)-pyrrolo[2,3-d]pyrimidin-7-yl]-propyl}-amide], 100 to 1000 nM; in that of `O=C(NCCCn1ccc2cnc(Nc3ccc(-c4cnco4)cc3)nc21)C1CCC1` [Example 54, Cyclobutanecarboxylic acid {3-[2-(4-oxazol-5-yl-phenylamino)-pyrrolo[2,3-d]pyrimidin-7-yl]-propyl}-amide], less than 100 nM. In the case of `CC(C)CC(=O)NCCCn1ccc2cnc(Nc3ccc(N4CCOCC4)nc3)nc21` [Example 19, 3-Methyl-N-{3-[2-(6-morpholin-4-yl-pyridin-3-ylamino)-pyrrolo[2,3-d]pyrimidin-7-yl]-propyl}-butyramide] it was 100 to 1000 nM.
